This is an account of results in ChEMBL document CHEMBL5096219, “Design, synthesis and biological evaluation of novel pyrazinone derivatives as PI3K/HDAC dual inhibitors” (Bioorg Med Chem, 2022).

Each structure is given as a SMILES string.

The term IC50 denotes the point on the concentration scale where inhibition reaches its midpoint.

Assay [1] relates to MV4-11. Put plainly: Induction of apoptosis in human MV4-11 cells assessed as early apoptotic cells at 450 nM incubated for 48 hrs by Annexin V-FITC/PI staining based flow cytometry (reference value: 0.95%). In kind it is functional. (In general: Flow cytometry measures light scatter and fluorescence of single cells or particles in a stream.)
The target of assay [2] is T1, Protein deacetylase HDAC6 (Homo sapiens) (UniProt Q9UBN7).
T1 sequence (whole entry): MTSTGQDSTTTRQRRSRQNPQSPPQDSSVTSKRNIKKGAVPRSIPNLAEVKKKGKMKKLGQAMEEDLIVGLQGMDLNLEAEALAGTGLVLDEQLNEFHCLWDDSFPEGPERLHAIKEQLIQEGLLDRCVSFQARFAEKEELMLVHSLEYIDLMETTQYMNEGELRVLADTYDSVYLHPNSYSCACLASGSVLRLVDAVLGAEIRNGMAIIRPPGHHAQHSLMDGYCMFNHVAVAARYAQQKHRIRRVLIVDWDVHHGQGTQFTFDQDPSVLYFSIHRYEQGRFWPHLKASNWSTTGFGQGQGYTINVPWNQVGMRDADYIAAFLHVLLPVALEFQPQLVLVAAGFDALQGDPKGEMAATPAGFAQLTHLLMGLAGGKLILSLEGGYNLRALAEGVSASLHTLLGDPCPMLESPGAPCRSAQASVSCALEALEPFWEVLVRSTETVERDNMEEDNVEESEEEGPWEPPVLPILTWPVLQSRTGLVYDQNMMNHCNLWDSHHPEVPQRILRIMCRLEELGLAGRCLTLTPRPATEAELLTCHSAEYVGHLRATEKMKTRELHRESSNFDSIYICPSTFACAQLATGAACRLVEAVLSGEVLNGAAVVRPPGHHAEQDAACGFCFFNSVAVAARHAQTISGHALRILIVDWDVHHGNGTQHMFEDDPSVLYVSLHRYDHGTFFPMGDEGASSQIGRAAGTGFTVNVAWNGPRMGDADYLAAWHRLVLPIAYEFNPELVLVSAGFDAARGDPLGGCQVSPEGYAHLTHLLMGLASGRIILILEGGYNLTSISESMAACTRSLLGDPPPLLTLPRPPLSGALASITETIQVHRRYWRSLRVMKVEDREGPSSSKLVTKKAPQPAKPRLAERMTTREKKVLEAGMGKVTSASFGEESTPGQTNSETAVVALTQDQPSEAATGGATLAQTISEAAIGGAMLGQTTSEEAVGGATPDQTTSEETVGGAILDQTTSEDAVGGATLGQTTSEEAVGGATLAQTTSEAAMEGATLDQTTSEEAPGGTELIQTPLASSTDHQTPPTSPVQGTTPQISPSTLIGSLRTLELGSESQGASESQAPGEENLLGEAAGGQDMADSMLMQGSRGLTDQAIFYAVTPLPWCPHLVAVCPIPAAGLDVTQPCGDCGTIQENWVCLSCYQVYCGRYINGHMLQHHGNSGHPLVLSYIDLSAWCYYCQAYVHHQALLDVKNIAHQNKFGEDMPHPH
The assay can be described thus: Inhibition of HDAC6 in human MV4-11 cells assessed as increase in acetylated alpha-tubulin level incubated for 24 hrs by western blot analysis. In kind it is cell-based. The conditions noted are these: dose 0.05-0.45 µM, DDE = dose-dependent effect. Background: A western blot detects proteins with antibodies after separation by electrophoresis.

The subject of assay [3] is MV4-11. The assay can be described thus: Induction of cell cycle arrest in human MV4-11 cells assessed as accumulation of cells at G2/M phase at 50 nM incubated for 48 hrs by […]PI staining based flow cytometry (reference value: 11.5%). In kind it is functional.
A further assay deals with MCF7. The assay can be described thus: Antiproliferative activity against human MCF7 cells assessed as inhibition of cell proliferation incubated for 72 hrs by MTT assay. The conditions noted are these: MCF7, 72 h. In kind it is functional, cell-based. (Formazan colour is commonly taken as a measure of viable cells.)
The next assay has as its system HL-60. Put plainly: cells. The conditions noted are these: Homo sapiens, HL-60, 72 h. In kind it is functional, cell-based.
The subject of assay [4] is MV4-11. Put plainly: Induction of apoptosis in human MV4-11 cells assessed as early apoptotic cells at 150 nM incubated for 48 hrs by Annexin V-FITC/PI staining based flow cytometry (reference value: 0.95%). In kind it is functional.
Assay [5] relates to MV4-11. The assay can be described thus: Induction of apoptosis in human MV4-11 cells assessed as late apoptotic cells at 450 nM incubated for 48 hrs by Annexin V-FITC/PI staining based flow cytometry (reference value: 2.04%). In kind it is functional.
The test system of assay [6] is MV4-11. The assay can be described thus: Induction of cell cycle arrest in human MV4-11 cells assessed as accumulation of cells at G2/M phase at 150 nM incubated for 48 hrs by […]PI staining based flow cytometry (reference value: 11.5%). In kind it is functional.
Assay [7] relates to MV4-11. Put plainly: Induction of apoptosis in human MV4-11 cells assessed as late apoptotic cells at 50 nM incubated for 48 hrs by Annexin V-FITC/PI staining based flow cytometry (reference value: 2.04%). In kind it is functional.
Assay [8] relates to MV4-11. Put plainly: Induction of cell cycle arrest in human MV4-11 cells assessed as accumulation of cells at S phase at 450 nM incubated for 48 hrs by […]PI staining based flow cytometry (reference value: 45.5%). In kind it is functional.
For assay [9], the target named is T2, Protein deacetylase HDAC6 (Homo sapiens, UniProt Q9UBN7).
T2 sequence (Q9UBN7 whole entry): T1 sequence (whole entry)
The assay can be described thus: Inhibition of HDAC6 (unknown origin).

Assay [10] relates to MV4-11. Put plainly: Induction of apoptosis in human MV4-11 cells assessed as necrotic cells at 150 nM incubated for 48 hrs by Annexin V-FITC/PI staining based flow cytometry (reference value: 0.51%). In kind it is functional.
The next assay relates to A549. Put plainly: Antiproliferative activity against human A549 cells assessed as inhibition of cell proliferation incubated for 72 hrs by MTT assay. The note with it: A549, 72 h. In kind it is functional, cell-based.
Assay [11] has as its system MV4-11. Put plainly: Induction of apoptosis in human MV4-11 cells assessed as total apoptotic cells at 50 nM incubated for 48 hrs by Annexin V-FITC/PI staining based flow cytometry (reference value: 2.99%). In kind it is functional.
For assay [12], the system named is MV4-11. The assay can be described thus: Induction of apoptosis in human MV4-11 cells assessed as viable cells at 150 nM incubated for 48 hrs by Annexin V-FITC/PI staining based flow cytometry (reference value: 96.5%). In kind it is functional. The note with it: read-out: Activity.
Assay [13] concerns MV4-11. Put plainly: Induction of apoptosis in human MV4-11 cells assessed as late apoptotic cells at 150 nM incubated for 48 hrs by Annexin V-FITC/PI staining based flow cytometry (reference value: 2.04%). In kind it is functional.
For a further assay, the system named is HCT-116. Put plainly: Antiproliferative activity against human HCT-116 cells assessed as inhibition of cell proliferation incubated for 72 hrs by MTT assay. In kind it is functional, cell-based. The note with it: HCT-116, 72 h.
Assay [14] concerns MV4-11. The assay can be described thus: Inhibition of PI3K in human MV4-11 cells assessed as downregulation of phosphorylated AKT expression incubated for 24 hrs by western blot analysis. The note with it: dose 0.05-0.45 µM, DDE = dose-dependent effect. In kind it is cell-based.
Assay [15] relates to MV4-11. Put plainly: Induction of cell cycle arrest in human MV4-11 cells assessed as accumulation of cells at G0/G1 phase at 150 nM incubated for 48 hrs by […]PI staining based flow cytometry (reference value: 33.1%). In kind it is functional.
The subject of assay [16] is MV4-11. Put plainly: Induction of apoptosis in human MV4-11 cells assessed as necrotic cells at 450 nM incubated for 48 hrs by Annexin V-FITC/PI staining based flow cytometry (reference value: 0.51%). In kind it is functional.
The test system of assay [17] is MV4-11. Put plainly: Induction of apoptosis in human MV4-11 cells assessed as early apoptotic cells at 50 nM incubated for 48 hrs by Annexin V-FITC/PI staining based flow cytometry (reference value: 0.95%). In kind it is functional.
The test system of assay [18] is MV4-11. The assay can be described thus: Induction of cell cycle arrest in human MV4-11 cells assessed as accumulation of cells at G0/G1 phase at 50 nM incubated for 48 hrs by […]PI staining based flow cytometry (reference value: 33.1%). In kind it is functional.

Description for HL-60: Antiproliferative activity against human HL-60 cells assessed as inhibition of cell proliferation incubated for 72 hrs by CCK8 assay

In the case of `O=C(NO)c1ccc(Cn2cc(-c3cccc4[nH]ncc34)nc(N3CCOCC3)c2=O)cc1`, the Activity in the assay with MV4-11 [1] is given as 34.6%; with MV4-11 [3], 24.6%; in the assay on MV4-11 [4], 2.44%; in the assay on MV4-11 [5] it was 46.1%; in the assay with MV4-11 [6], 32.9%; with MV4-11 [7] it was 3.67%. Moreover, the Activity in the assay on MV4-11 [8] turned out to be 34.9%; in the assay on MV4-11 [10] it was 3.45%; in the assay on MV4-11 [11], 7.2%; in the assay with MV4-11 [13], 14.5%; in the assay on MV4-11 [15] it was 25.6%; in the assay with MV4-11 [16], 0.69%. Besides, the Activity with MV4-11 [17] is on record as 3.53%; in the assay on MV4-11 [18], 28.4%. In addition, the inhibition entry (in assay [2]; with MV4-11 [14]) was “Dde” each time. Further, the IC50 in the assay with MCF7 turned out to be 400 nM; in the assay with HL-60 it was 350 nM; in [9] it was 4.5 nM; with A549 it was 11000 nM; in the assay on HCT-116, 16400 nM. The viability at 0.15 µM in the assay with MV4-11 [12] amounted to 79.6%.
